Measurements from patent US20250032447A1, “USE OF UROLITHIN IN THE REMISSION PHASE OF A PRECEDING CANCER THERAPY” (SOCIETE DES PRODUITS NESTLE S.A., priority 2022, published 2025).
Entries after “also recorded” stand apart in the source; their conditions may differ.

How the values were obtained:
B16 melanoma [1] = experiment: B16 melanoma preventive effect, diet on/off; format: in vivo, B57BL/6 mice; details: day 17, 5×10^5 B16 cells s.c.
Description: To test whether Urolithin A feeding would have a preventive effect by boosting the immune system inventors performed the following experiment. A less immunogenic tumor model B16 melanoma was chosen for this experiment. 10 mice received ad libitum DMSO diet (see above), and 10 mice received ad libitum Urolithin A enriched diet (see above) for 4 weeks. Then 5 mice from DMSO diet were placed in conventional diet (provided by Animal facility), this group was called DMSO on/off. The remaining 5 mice were kept in DMSO diet and named DMSO group. 5 mice from Urolithin diet were placed in conventional diet (provided by Animal facility), this group was called UroA on/off. The remaining 5 mice were kept in […]. After one week, 5×10^5 B16 cells were subcutaneously injected in the right flank of B57BL/6 mice. Tumor engraftment, diet treatment and re-challenge experiments were as described initially in Example 1.

[2] = tested on: MC38 colorectal cancer cells; experiment: MC38 tumor re-challenge of survivor mice; format: in vivo
Description: For re-challenge experiments, survivor mice were removed from the UroA diet and placed in conventional diet (diet provided by the animal facility of University of Lausanne) for one week. During this week one mouse developed tumor and was excluded from the experiment. The remaining 3 mice were subcutaneously injected with 5×10^5 MC38 cancer cells. At the same time, another 5 mice (named control cage) were subcutaneously injected with 5×10^5 MC38 cancer cells. This second tumor injection was done on the left flank of the mouse to discriminate between tumor arising from the first injection from tumor arising from the second, re-challenge, injection.
Then, it was tested whether UroA mediated tumor control was exerted through adaptive immune response. It was assumed as a working hypothesis that memory T cells with antitumoral activity would have been generated in the survivor hosts, which would promptly react against a second tumor graft. To test this hypothesis, survivor mice from the UroA group were injected after 7 weeks with the same cancer cell line (MC38) in the opposite flank (FIG. 2A). To exclude any possible contribution of UroA in tumor growth, the mice survivor mice and a control cage group were kept in conventional food without UroA for one week before tumor injection.

[3] = Initial tests in mice fed diet supplemented with UroA; format: in vivo
[4] = tested on: MC38 colorectal cancer cells; experiment: MC38 tumor challenge in mice fed UroA enriched diet; format: in vivo, C57BL/6 mice
Description: Cell line and in vitro culture: An MC38 colorectal cancer cell line and a B16 cell line were used. The MC38 colorectal cancer cell line (Corbett el al., Can Res, 1975) is a murine colon adenocarcinoma cell line from a C57BL/6 mouse. The cells are adherent and have a fibroblast morphology. MC38 cells will form tumors and metastases post implantation into syngeneic C57BL/6 mice or immunocompromised mice. The B16 melanoma is a murine tumor cell line used for research as a model for human skin cancers. Both MC38 and B16 cancer cell lines are commercially available.
The MC38 colorectal cancer cell line was maintained in RPMI 1640 media (Thermofisher) supplemented with 10% FBS (Gibco), 50 μM beta-mercaptoethanol (Thermofisher), 100 U/ml penicillin/streptomycin (Thermofisher), 1 mM Sodium Pyruvte (Thermofisher).
B57BL/6 mice were purchased from ENVIGO and housed in the animal facility of the University of Lausanne. One week upon arrival mice were fed ad libitum with Urolithin A enriched diet. Urolithin A diet was prepared as follow: 300 mg of Urolithin A (Novalix) was dissolved in DMSO (Applichem) and mixed with 1 kg of “2016 Irradiated Global 16% Rodent diet ground” (ENVIGO) corresponding to a dose of 50 mg/kg/day. For control diet, hereafter named DMSO diet, DMSO (Applichem) was mixed with 1 kg of “2016 Irradiated Global 16% Rodent diet ground” (ENVIGO). The diets were aliquoted in small balls and let them dry under sterile conditions. Mice were fed ad libitum for 4 weeks with DMSO diet or Urolithin A diet before tumor engraftment.
For tumor engraftment, each mouse was injected subcutaneously with 5×10^5 MC38 cancer cells or 1×10^5 B16 cancer cells into the right flank.
For the MC38 and B16 experiments 5 mice received ad libitum DMSO diet, and 5 mice received ad libitum Urolithin A enriched diet for 4 weeks before tumor injection. Mice were sacrificed at humane endpoint as established by the Swiss federal regulation and approved by cantonal authorities. Examples of humane endpoint are: tumor size exceeding […], loss of weight (15% of the previous time point) and sign of distress. […] These mice were named survivor mice.
To test this hypothesis, mice were fed ad libitum with UroA diet (see above, Urolithin A diet) and control diet (DMSO, see above) for 4 weeks. Colorectal cancer cells MC38 were subcutaneously injected in the right flank of the mice (FIG. 1A). Tumor volumes were estimated by using the formula: tumor volume=(length×width×width)/2.

MC38 cells = experiment: MC38 tumor challenge in immunodeficient NSG mice; format: in vivo; details: for effect on tumor growth rate and size: NSG immunodeficient mice, vs DMSO control
Description: To validate that the Urolithin A supplementation enhances the adaptive immune response 5×10^5 MC38 cells were subcutaneously injected in the right flank of the immunodeficient mice NSG (NOD.Cg-Prkdc^sc^i^d II2rg^tm1Wil/SzJ) previously fed with Urolithin A enriched diet for 4 weeks. Tumor volumes were estimated by using the formula: tumor volume=(length×width×width)/2. 5 mice recede the DMSO diet and 5 mice received the Urolithin A enriched diet. Both the 5 mice receiving the DMSO diet and the 5 mice receiving the Urolithin A enriched diet developed tumors.

B16 melanoma [5] = experiment: B16 melanoma tumor challenge in mice fed UroA enriched diet; format: in vivo, B57BL/6 mice; details: 5 mice; Urolithin A enriched diet ad libitum 4 weeks before B16 injection
Experimental: The B16 cell line were maintained in DMEM+GlutaMAX (Thermofisher) supplemented with 10% FBS (Gibco), and 100 U/ml penicillin/streptomycin (Thermofisher). B57BL/6 mice were purchased from ENVIGO and housed in the animal facility of the University of Lausanne. One week upon arrival mice were fed ad libitum with Urolithin A enriched diet. Urolithin A diet was prepared as follow: 300 mg of Urolithin A (Novalix) was dissolved in DMSO (Applichem) and mixed with 1 kg of “2016 Irradiated Global 16% Rodent diet ground” (ENVIGO) corresponding to a dose of 50 mg/kg/day. For control diet, hereafter named DMSO diet, DMSO (Applichem) was mixed with 1 kg of “2016 Irradiated Global 16% Rodent diet ground” (ENVIGO). The diets were aliquoted in small balls and let them dry under sterile conditions. Mice were fed ad libitum for 4 weeks with DMSO diet or Urolithin A diet before tumor engraftment. For tumor engraftment, each mouse was injected subcutaneously with 5×10^5 MC38 cancer cells or 1×10^5 B16 cancer cells into the right flank. For the MC38 and B16 experiments 5 mice received ad libitum DMSO diet, and 5 mice received ad libitum Urolithin A enriched diet for 4 weeks before tumor injection. Mice were sacrificed at humane endpoint as established by the Swiss federal regulation and approved by cantonal authorities. […]

## O=c1oc2cc(O)ccc2c2ccc(O)cc12 [Urolithin A, 3,8-dihydroxyurolithin]
B16 melanoma [1]; UroA group (kept on diet)
  average tumor size: 200 mm^3
B16 melanoma [1]; UroA on/off group (4 weeks diet, then conventional diet one week before injection)
  average tumor size: 200 mm^3
[2]; survivor mice re-injected with MC38 in opposite flank after 7 weeks, conventional food without UroA for one week before injection
  average tumor size upon re-challenge: 100 mm^3
[2]; survivor mice vs freshly challenged control cage group, listed as UroA
  survival upon re-challenge: better tumor control capacity and survival; also recorded: improved overall survival
[3]
  overall quality of HSCs: increased
  splenocytes count: increased
[4]; Exp1, 5 mice, Urolithin A enriched diet ad libitum 4 weeks (50 mg/kg/day) before s.c. injection of 5×10^5 MC38 cells
  average tumor size: 50 mm^3
[4]; Exp1 and Exp2, UroA enriched diet ad libitum vs DMSO diet
  tumor engraftment and growth: significantly reduced
[4]; Exp2, out of 3 mice on Urolithin A enriched diet
  mice that developed tumors bigger than 100 mm^3: one
[4]; MC38, mice fed Urolithin A diet
  mice that did not develop any tumor: 4 out of 5
[4]; UroA diet compared to DMSO diet, MC38 model
  overall survival: improved overall survival
MC38 cells
  effect on tumor growth rate and size: no change in tumors growth rate and volume
MC38 cells; listed as UroA
  effect on tumor growth rate and size: no effect on tumor size
MC38 cells; day 18, NSG mice, Urolithin A enriched diet 4 weeks, 5×10^5 MC38 cells s.c.
  tumor size at last timepoint: 1000 mm³
B16 melanoma [5]
  average tumor size: 70 mm^3
